Test results as given in patent US8980843B2, “Leptin agonist and methods of use” (Temple University—of the Commonwealth System of Higher …, priority 2009, dated 2015).
Entries after “also recorded” stand apart in the source; their conditions may differ. Non-standard residues stand in square brackets, D forms with d. Residues, ends and D or L forms follow the SMILES beside them. *: point of attachment. αGalNAc = CC(=O)N[C@@H]1[C@@H](O)[C@@H](O)[C@@H](CO)O[C@@H]1*; Tyr(3,5-I2) = N[C@@H](Cc1cc(I)c(O)c(I)c1)C(=O)O; Acp = not defined here; Ahx = NCCCCCC(=O)O

Columns and labels:
[1] = In vivo biodistribution of fluorescent-labelled peptide
Procedure: Compound (2), labeled with fluorescent dye Alexa Fluor® 680, was prepared and purified by reverse phase HPLC. 5 μg of the compound were injected intraperitoneally into anesthetized female Balb/c mice. While sleeping, the animals were placed into the fluorescence microscope chamber. Fluorescence exposure pictures were taken with a Kodak 4000MM camera set to 695 nm emission wavelength at five minute intervals afterwards for 80 min.

[2] = system: C57BL/6 mice; assay: Short chronic toxicity study in peanut-fed mice; type: in vivo; settings: 1.5 or 4.0 mg/kg ip once daily, 4 days
Procedure: Eight C57BL/6 mice, 6 weeks of age (8 mice: 4 males, 4 females), were fed with peanut diet for 6 days. They were split in three different groups. The first group was left untreated (4 mice: 2 males, 2 females). The second group received a compound of the invention once daily intraperitoneally at 1.5 mg/kg for 4 days (2 mice: 1 male, 1 female). The third group received a compound of the invention once daily intraperitoneally at 4.0 mg/kg (2 mice: 1 male, 1 female) for 4 days. The animals were inspected daily for signs of disease or discomfort. After 5 days of treatment, the mice were weighed, sacrificed with CO2 inhalation, and bled for laboratory blood analysis. Their brains, livers, kidneys and spleens were inspected, removed and weighed.
Eight mice (4 males, 4 females) were fed with peanut diet for 6 days. After that, they were left untreated (2 males, 2 females), or received compound (1) once daily at 1.5 mg/kg (1 male, 1 female) or 4.0 mg/kg (1 male, 1 female) for 4 days.

[3] = system: ObR-positive LN18 glioblastoma cells; assay: Cell proliferation assay, LN18 glioblastoma cells; type: cell-based; settings: data not shown
Procedure: (§1) LN18 and LN229 cells naturally expressing ObR were purchased from ATCC and were cultured in DMEM low glucose plus 5% fetal bovine serum.
(§2) Seventy percent confluent cultures of LN18 and LN229 cells were synchronized in serum-free medium (DMEM plus 10 μM FeSO4 and 0.5% bovine serum albumin—BSA) for 48 hours and then treated with leptin and/or compounds (different doses) for 3 days. Cell numbers before and after treatment were determined by direct counting the cells with trypan blue exclusion. All assays were done in triplicate and repeated 3-6 times. The cell numbers were expressed as means±standard error. The results were statistically evaluated by Student's t-test and analysis of variance (ANOVA). Values of p<0.05 were considered statistically significant.
(§3) Stimulation of ObR-positive cells by compound (1) was evaluated. A true agonist of an ObR-positive receptor should stimulate the growth of ObR-positive cells when added alone and should not antagonize the actions of leptin in the same cells. In order to determine whether compound (1) is a true agonist, the ObR-positive, CNS-resident glioblastoma cell lines LN229 and LN18 were used. EC values for this peptide were measured without exogenous leptin present, and IC values with 12 nM leptin added.

[4] = system: ObR-positive LN229 glioblastoma cells; assay: Cell proliferation assay, ObR-positive LN229 glioblastoma cells; type: cell-based; settings: for Selectivity (EC/IC): LN229 cells
Procedure: as §1, §2, §3

[5] = system: normal F344 male rats; assay: Rat appetite control, intranasal administration to normal rats; type: in vivo; settings: 0.1 mg/kg/day intranasal
Procedure: Eight 6-weeks-old male […] rats were kept on regular laboratory diet. At noon time for 10 days, the animals were weighed, turned upside down, and received 0.1 mg/kg/day of a compound of the invention ([…]) or physiological solution ([…]) dripped in 10 μL volume into their nose. On day 15, the rats were weighed and sacrificed (cervical dislocation), and bled for laboratory blood analysis. Their brains, livers, kidneys and spleens were removed and weighed.
Rats were allowed to lab chow ad libitum, and treatment lasted for 10 days with 0.1 mg/kg/day single dose of compound (1) dropped into the nose in 10 μL salt solution. Untreated control animals were administered 10 μL physiological salt solution. Results are represented in FIG. 5.

[6] = system: obese C57BL/6 mice; assay: Pregnancy test after treatment of obese mice; type: in vivo; settings: for Number of pregnancy incidents: observed 5 weeks
Description: The remaining mice after the treatment with leptin or a compound of the invention were returned to 6% fat lab chow diet, and locked into cages in couples. […] The two successful litters were examined for growth and behavioral patterns.
Upon cessation of the weight gain assay and laboratory work, the remaining mice were returned to 6% fat lab chow diet, and locked into cages in couples to investigate whether treatment with leptin or compound (1) improved their fertility rates. […] Neither of two couples of control, untreated mice produced litters, as expected (Table 3). […] Leptin treatment somewhat improved the situation because one of the two couples produced a litter. As for the couple of mice treated with the 0.5 mg/kg/day dose of compound (1), the female became pregnant immediately and delivered 6 healthy pups in less than a month (Table 3).

[7] = system: high-fat induced obesity (DIO) C57BL/6 mice; assay: Mouse model of obesity and leptin resistance (DIO mice); type: in vivo; settings: for Blood glucose level / Blood total cholesterol level: DIO mice; for resistance to treatment (weight curves): 10-day ip treatment, leptin 0.1, compound (1) 0.02 and 0.1 mg/kg/day
Procedure: Animals were sacrificed by CO2 inhalation. Livers were removed and fixed in 10% buffered formaldehyde, pH, 7.4. After 24 hour fixation, liver specimens were dehydrated in graded ethanol and placed into methyl benzoate for an hour. The specimens were then transferred to xylene and embedded into paraffin. 6-μm thick paraffin sections were deparaffinized and stained with H&E. Photomicrographs were taken by using a Zeiss light microscope equipped with a CCD camera. The final magnification of the pictures was 200-fold.
An animal model for leptin resistance was used to evaluate compounds of the invention. In this model, based on high-fat induced obesity (DIO) of normal mice, the animals are fed with a diet containing 40-60% fat and become resistant to leptin treatment (Steinberg et al., 2006, Endocrinology 147: 3906-3914; Nakagawa et al., 2003, J. Obesity 27: 557-565). Normal C57BL/6 mice were fed with regular 6% lab chow until 3 weeks of age when their diet was switched to peanuts only. Peanuts have 47-50% dry fat content, and are considered a typical high-fat food (Isleib et al., 2004, J. Agric. Food Chem. 52: 3165-3168). DIO mice develop peripheral leptin resistance after 16 days of high-fat diet (van Heek et al., 1997, J. Clin. Invest. 99:3 85-390). In this study, the mice were fed peanuts for 5 weeks. The animals had access to water and peanuts ad libitum. After 3 weeks (total age 6 weeks) a group of 6 mice remained untreated, and 4 groups received leptin or a compound of the invention.
Mice were weighed daily and received a daily single dose (around noon time) intraperitoneally with the following scheme: Group 1 (6 mice: 3 males, 3 females) —physiological solution (control); Group 2 (6 mice: 3 males, 3 females) —0.1 mg/kg/day leptin; Group 3 (4 mice: 2 males, 2 females) —0.02 mg/kg/day compound of the invention; Group 4 (6 mice: 3 males, 3 females) —0.1 mg/kg/day compound of the invention; and Group 5 (4 mice: 2 males, 2 females) —0.5 mg/kg/day compound of the invention. After 10 days of treatment, one male and one female mouse from each group were sacrificed and bled, and their livers, spleens, kidneys and brains were removed for histology and toxicity analysis.
The DIO mice were allowed to eat peanut ad libitum. They were weighed daily and received the following intraperitoneal treatment at noontime: Group 1 (6 mice: 3 males, 3 females) —physiological solution (control); Group 2 (6 mice: 3 males, 3 females) —0.1 mg/kg/day of leptin; Group 3 (4 mice: 2 males, 2 females) —0.02 mg/kg/day of compound (1); Group 4 (6 mice: 3 males, 3 females) —0.1 mg/kg/day of compound (1); and Group 5 (4 mice: 2 males, 2 females) —0.5 mg/kg/day of compound (1).

[8] = 5 μg intraperitoneally, fluorescence imaging

## CC(=O)N[C@H]1[C@@H](O[C@H](C)[C@H](NC(=O)[C@H](CO)NC(=O)[C@@H](N)Cc2cc(I)c(O)c(I)c2)C(=O)N[C@@H](CCC(=O)O)C(=O)N[C@H](C(=O)N[C@H](C(=O)N[C@@H](C)C(=O)N[C@@H](CC(C)C)C(=O)N[C@@H](CO)C(=O)N[C@@H](CCCNC(=N)N)C(=O)NCCCCCC(N)=O)C(C)C)C(C)C)O[C@H](CO)[C@H](O)[C@@H]1O [compound (1), Tyr(I2)-Ser-Thr(α-GalNAc)-Glu-Val-Val-Ala-Leu-Ser-Arg-AcpNH2] (H-[Tyr(3,5-I2)]ST(αGalNAc)EVVALSR[Ahx]-NH2; N-terminus assumed)
[1]; inferred from labelled analogue
  BBB-penetrating ability, by inference from compound (2): good BBB-penetrating ability
[2]
  average organ weight, brain: 0.3 g
  average organ weight, kidney (females): 0.20 g
  average organ weight, kidney (males): 0.25 g
  average organ weight, liver: 1.06 g
  average organ weight, spleen: 0.09 g
  gross necropsy: no signs of toxicity
  weight change during compound addition: Three of the 4 treated mice lost weight
[3]
  agonistic activity: picomolar agonistic activities
[4]
  Selectivity (EC/IC): >100
[4]; listed as Compound (1)
  Selectivity (EC/IC): greater than 100
[4]; LN229 proliferation, with 12 nM leptin added
  IC100: >100 nM
[4]; LN229 proliferation, without exogenous leptin, 3 days
  EC100: <1 nM
[4]; with 12 nM leptin added
  Antagonistic properties (ICs) to leptin-induced LN229 stimulation: ≥ 100 nM
[5]; 10 days, day 11
  weight growth less than untreated controls: 10.8 g
[5]; 10 days, day 14
  net total body weight (tbw) loss: 6.8%
  weight growth less than untreated controls: 11.7 g
[5]; at sacrifice
  average total blood cholesterol level: 1.28 mmol/L
  organ weight, brain: 1.2 g
  organ weight, kidney: 1.5 g
  organ weight, liver: 6.9 g
  organ weight, spleen: 0.42 g
[6]; after 0.02 mg/kg/day ip
  Number of pregnancy incidents: 0
[6]; after 0.1 mg/kg/day ip
  Number of pregnancy incidents: 0
[6]; after 0.5 mg/kg/day ip, one couple
  healthy pups delivered: 6
[6]; after 0.5 mg/kg/day ip
  Number of pregnancy incidents: 1
[6]; low-dose regimen (0.02 and 0.1 mg/kg/day)
  fertility of couples: remained infertile
[7]; 0.02 mg/kg/day ip, 10 days
  weight reduction relative to untreated controls at end of treatment: 0.5 g
[7]; 0.02 mg/kg/day ip
  Blood glucose level: 8.45 mM/L
  Blood total cholesterol level: 2.51 mM/L
[7]; 0.1 mg/kg/day ip, 10 days
  weight reduction relative to untreated controls at end of treatment: 0.6 g
[7]; 0.1 mg/kg/day ip
  Blood glucose level: 8.55 mM/L
  Blood total cholesterol level: 2.77 mM/L
[7]; 0.5 mg/kg/day ip
  blood cholesterol level reduction: 9%
  glucose level reduction: 17%
  liver fat cell content (histology): fatty cytoplasm could no longer be observed; also recorded: fat cells were completely eliminated from the liver
  Blood glucose level: 7.06 mM/L
  Blood total cholesterol level: 2.08 mM/L
[7]; 0.5 mg/kg/day ip, 10 days
  net total body weight loss: 6.5%
  relative weight loss compared to untreated mice: 1.3 g
[7]; 0.02, 0.1 and 0.5 mg/kg/day ip
  liver fat cell content, dose dependence: lowered the fatty cell content of the liver in a dose-dependent manner
[7]
  resistance to treatment (weight curves): lack of resistance to peptide treatment

## Alexa680-Tyr(I2)-Ser-Thr(α-GalNAc)-Glu-Val-Val-Ala-Leu-Ser-Arg-AcpNH2 ({Alexa680-Tyr(3,5-I2)-Ser-Thr(α-GalNAc)}-EVVALSR-{Acp-NH2}; reading uncertain) [compound (2)]
[1]; [8]
  BBB-penetrating ability: good BBB-penetrating ability
  distribution into peptide elimination organs (kidneys, liver, spleen): distributed into the usual peptide elimination organs within one hour from administration
  presence in tail, limbs and brain: also found in the tail, the limbs and the brain

## leptin: Human leptin purchased from R&D Systems; 146-amino acid neurohormone, native ObR ligand
[6]; after 0.1 mg/kg/day ip
  Number of pregnancy incidents: 1
[7]; 0.1 mg/kg/day ip
  liver fat cell content (histology): acinoperipheral regions of the liver still contained fat cells
  Blood glucose level: 5.22 mM/L
  Blood total cholesterol level: 2.47 mM/L
[7]; 0.1 mg/kg/day ip, 10 days
  weight reduction relative to untreated controls at end of treatment: 0.3 g
[7]
  resistance to treatment (weight curves): fast acquisition of resistance
